Paper PMC12142043, “Cell-based high-content approach for SARS-CoV-2 neutralization identifies unique monoclonal antibodies and PI3K pathway inhibitors” (Frontiers in Cell and Developmental Biology, 2025)

Tested on: SARS-CoV-2 (USA-WA1/2020) in Calu-3 cells
Type: cell-based
Conditions: Calu-3, 48 h; for dsRNA signal, AU High: high dose (10 µM); for dsRNA signal, AU Low: low dose (100 nM)

SMILES	dsRNA signal, AU High [AU]	dsRNA signal, AU Low [AU]
O=C(Nc1cccc(Nc2nccc(Nc3cccc(C(F)(F)F)c3)n2)c1)C1CC1 [Aurora Kinase Inhibitor III]	2378.0	11511.4
CNC(=O)c1ccccc1Sc1ccc2c(/C=C/c3ccccn3)n[nH]c2c1 [Axitinib (AG 013736)]	42600.6	65444.2
CCN1CCN(c2ccc(Nc3cc(N(C)C(=O)Nc4c(Cl)c(OC)cc(OC)c4Cl)ncn3)cc2)CC1 [BGJ398]	24356.1	22673.4
CC[C@@H]1C(=O)N(C)c2cnc(Nc3ccc(C(=O)NC4CCN(C)CC4)cc3OC)nc2N1C1CCCC1 [BI 2536]	34739.4	58236.8
Cc1ccc(-n2nc(C(C)(C)C)cc2NC(=O)Nc2ccc(OCCN3CCOCC3)c3ccccc23)cc1 [BIRB 796 (Doramapimod)]	8315.3	13140.6
CN(C)Cc1cccc(N/C(=C2\C(=O)Nc3cc(C(N)=O)ccc32)c2ccccc2)c1 [BIX 02188]	40230.6	23376.7
NC(=O)c1ccc2nc(-c3ccc(Oc4ccc(Cl)cc4)cc3)[nH]c2c1 [BML-277]	33021.5	13488.9
Cc1ccc2nc(NCCN)c3ncc(C)n3c2c1.Cl [BMS345541 hydrochloride]	0.0	5872.9
CCCNC(=O)c1cn2ncnc(Nc3cc(C(=O)NC4CC4)ccc3C)c2c1C.Cl [BMS-582949 hydrochloride]	7441.1	64364.9
CCOc1ccn(-c2ccc(F)cc2)c(=O)c1C(=O)Nc1ccc(Oc2ccnc(N)c2Cl)c(F)c1 [BMS-777607]	39539.6	18689.6
CCn1c(C(=O)N(C2CC2)C2CC2)cc2c3c(ncn3C)c(Nc3cc(C)n(C)n3)nc21 [BMS-911543]	18362.9	16684.7
C=CC(=O)Nc1cc(-n2c(=O)ccc3cnc4ccc(-c5ccc(NS(C)(=O)=O)cc5)cc4c32)ccc1C [BMX-IN-1]	37737.5	26747.2
Cc1ccc(NC(=O)c2ccc(CN3CC[C@H](N(C)C)C3)c(C(F)(F)F)c2)cc1Nc1nccc(-c2cncnc2)n1 [Bafetinib (INNO-406)]	1113.6	32473.2
CCN(CCO)CCCOc1ccc2c(Nc3cc(CC(=O)Nc4cccc(F)c4)[nH]n3)ncnc2c1 [Barasertib (AZD1152-HQPA)]	48647.4	41038.0
CCS(=O)(=O)N1CC(CC#N)(n2cc(-c3ncnc4[nH]ccc34)cn2)C1 [Baricitinib (LY3009104, INCB028050)]	27614.1	24279.2
CCS(=O)(=O)N1CC(CC#N)(n2cc(-c3ncnc4[nH]ccc34)cn2)C1 [Baricitinib phosphate]	2518.9	32442.1
CC(C)(C)c1ccc(S(=O)(=O)/C=C/C#N)cc1 [Bay 11-7085]	63723.6	21705.2
O=C(O)CCC(=O)Nc1ccc(Br)cn1 [Bikinin]	39833.6	44813.6
COc1ccc(-c2coc3cc(O)cc(O)c3c2=O)cc1 [Biochanin A]	14982.3	21751.5
COc1cc(Nc2c(C#N)cnc3cc(OCCCN4CCN(C)CC4)c(OC)cc23)c(Cl)cc1Cl [Bosutinib (SKI-606)]	38090.7	42027.4
CCOc1ccc(Nc2ccc(/C(=C3C=C/C(=[N+](/CC)Cc4cccc(S(=O)(=O)[O-])c4)C=C/3C)c3ccc(N(CC)Cc4cccc(S(=O)(=O)O)c4)cc3C)cc2)cc1 [Brilliant Blue G]	11949.6	31753.4
Cc1cc2c(F)c(Oc3ncnn4cc(OC[C@@H](C)O)c(C)c34)ccc2[nH]1 [Brivanib (BMS-540215)]	51042.4	684.7
O=C(/C=C/c1ccc(O)c(O)c1)c1ccc(O)cc1O [Butein]	38311.3	14009.4
CCN1C(=O)CNc2ncc(-c3ccc(-c4nc[nH]n4)nc3C)nc21 [CC-115]	5666.1	44138.8
CO[C@H]1CC[C@H](N2C(=O)CNc3ncc(-c4ccc(C(C)(C)O)nc4)nc32)CC1 [CC-223]	6587.4	41988.9
NC1(Cc2ccc(Cl)cc2)CCN(c2ncnc3[nH]ccc23)CC1 [CCT128930]	1507.6	9152.4
Cc1cc(CN2CCN(c3c(Br)cnc4nc(-c5ccc(N6CCN(C)CC6)cc5)[nH]c34)CC2)no1 [CCT137690]	0.0	46657.6

SMILES	dsRNA signal, AU High [AU]	dsRNA signal, AU Low [AU]
CN1CCN(c2cccc(Nc3nc4c(-c5ccc(S(C)(=O)=O)cc5)cccn4n3)c2)CC1 [CEP-33779]	12244.2	3458.4
Cc1c(NC(=O)c2ccc(C(C)(C)C)cc2)cccc1-c1cn(C)c(=O)c(Nc2ccc(C(=O)N3CCOCC3)cc2)n1 [CGI-1746]	34116.6	18368.1
Nc1ncnc2n[nH]c(Nc3ccc(F)cc3)c12 [CGP 57380]	1947.6	33084.2
O=c1[nH]c2ccc(Cl)cc2c(N[C@@H]2CN3CCC2CC3)c1-c1nc2ccccc2[nH]1 [CHIR-124]	9794.1	2244.6
Cc1cnc(-c2cnc(NCCNc3ccc(C#N)cn3)nc2-c2ccc(Cl)cc2Cl)[nH]1 [CHIR-99021 (CT99021)]	62333.9	10204.7
O=C1NCCCc2c1oc1ccc(O)cc21 [CID 755673]	9033.3	7582.1
O=C(Nc1ccc(CN2CCOCC2)cc1)c1ccc(-c2cccc(Cl)c2)o1 [CID 2011756]	3490.5	12424.4
C=CC(=O)Nc1cccc(Nc2nc(Nc3ccc(N4CCN(C(C)=O)CC4)cc3OC)ncc2C(F)(F)F)c1 [CO-1686 (AVL-301)]	16434.5	26200.1
Cn1cc(C2=C(c3cccc(N)c3)C(=O)NC2=O)c2ccccc21 [CP21R7]	5189.9	2975.5
COc1cc2ncnc(-n3nc(-c4ccccn4)nc3N)c2cc1OC [CP-466722]	23326.1	24439.1
COCCOc1ccc2c(c1)ncn2-c1ccc2cccc(N3CCC(N)CC3)c2n1 [CP-673451]	14720.6	4566.7
COCC(=O)NC/C=C/c1ccc2ncnc(Nc3ccc(Oc4ccc(C)nc4)c(C)c3)c2c1 [CP-724714]	1118.3	29983.8
O=C(O)CCCCC(CCSCc1ccccc1)SCc1ccccc1 (stereo not drawn) [CPI-613]	36.8	25399.4
CC[C@@H](N)CNc1ccnc(-c2cc(-c3cnn(C)c3)ccc2O)n1.Cl.Cl [CRT 0066101]	0.0	45629.7
O=C(O)c1ccc2c(c1)nc(Nc1cccc(Cl)c1)c1ccncc12 [CX-4945 (Silmitasertib)]	35326.5	21811.4
CN1CCCN(C(=O)c2cccc(-c3ccc(/C=C4/C(=O)Nc5ccc(Cl)cc54)o3)c2)CC1 [CX-6258]	0.0	9957.5
COc1cc2nccc(Oc3ccc(NC(=O)C4(C(=O)Nc5ccc(F)cc5)CC4)cc3)c2cc1OC [Cabozantinib (XL184, BMS-907351)]	13075.8	39205.8
COc1cc2nccc(Oc3ccc(NC(=O)C4(C(=O)Nc5ccc(F)cc5)CC4)cc3)c2cc1OC.O=C(O)C[C@H](O)C(=O)O [Cabozantinib malate (XL184)]	148.7	24276.1
COc1cc2c(Oc3ccc4[nH]c(C)cc4c3F)ncnc2cc1OCCCN1CCCC1 [Cediranib (AZD217)]	1359.3	15765.2
CCS(=O)(=O)N1CCN(c2ccc(Nc3ncc(C(N)=O)c(NC4CC4)n3)cc2)CC1 [Cerdulatinib (PRT062070)]	60131.0	21245.1
COc1ccc2c(c[n+](C)c3c4cc5c(cc4ccc23)OCO5)c1OC [Chelerythrine Chloride]	10306.1	22120.5
CCN(CC)CCCC(C)Nc1ccnc2cc(Cl)ccc12 (stereo not drawn) [Chloroquine diphosphate]	4180.7	1072.6
O=C(c1ccc(F)c(F)c1Nc1ccc(I)cc1F)N1CC(O)([C@@H]2CCCCN2)C1 [Cobimetinib]	1412.8	21814.8
O=C(O)c1cc(=O)c2c(OCC(O)COc3cccc4oc(C(=O)O)cc(=O)c34)cccc2o1 [Cromolyn sodium]	64024.7	17957.1
CC(C)(O)/C=C/C(=O)[C@](C)(O)[C@H]1[C@H](O)C[C@@]2(C)[C@@H]3CC=C4[C@@H](C=C(O)C(=O)C4(C)C)[C@]3(C)C(=O)C[C@]12C [Cucurbitacin I]	39627.9	39750.1
C=C1C[C@@]2(O)O[C@@]3(C[C@H]2C(C)C)[C@@H](C)CC[C@@H]13 [Curcumol]	0.0	41441.3
C[C@@H]1C(=O)O[C@H](C)[C@H]1C[C@@H](O)[C@](C)(O)[C@H]1CC[C@@]2(O)C3=CC(=O)[C@@H]4C[C@@H](O)[C@@H](O)C[C@]4(C)[C@H]3CC[C@]12C [Cyasterone]	81.6	11248.2
